From ChEMBL document CHEMBL4396913, “Synthesis and biological evaluation of hybrid quinolone-based quaternary ammonium antibacterial agents” (Eur J Med Chem, 2019)
The source made the active and inactive calls. No cut-off for these calls is given here.

Experiments:
Serratia marcescens [1] = assay: Bactericidal activity against Serratia marcescens ATCC 12795 cultured in MH medium assessed as reduction in bacterial survival incubated for 48 hrs by microbroth dilution method; type: functional; conditions: ATCC 12795, 48 h
Staphylococcus aureus [2] = assay: Antibiofilm activity against Staphylococcus aureus ATCC 25923 assessed as reduction in biofilm viability at 2.5 to 20 uM incubated for 24 hrs compound added prior to bacterial biofilm formation by resazurin staining based assay relative to control; type: functional
Escherichia coli [3] = assay: Antibacterial activity against Escherichia coli ATCC 8739 cultured in MH medium assessed as reduction in bacterial growth incubated for 48 hrs by microbroth dilution method; type: functional; conditions: ATCC 8739, 48 h
Pseudomonas aeruginosa [4] = assay: Antibiofilm activity against Pseudomonas aeruginosa ATCC 9027 assessed as biofilm formation at 0.5 times antibacterial MIC incubated for 24 hrs compound added prior to bacterial biofilm formation by total biomass crystal violet staining-based method relative to control; type: functional
Staphylococcus aureus [5] = assay: Antibiofilm activity against Staphylococcus aureus ATCC 6538 assessed as biofilm formation at 0.5 times antibacterial MIC incubated for 24 hrs compound added prior to bacterial biofilm formation by total biomass crystal violet staining-based method relative to control; type: functional
Staphylococcus aureus [6] = assay: Bactericidal activity against methicillin resistant Staphylococcus aureus N315 cultured in MH medium assessed as reduction in bacterial survival incubated for 48 hrs by microbroth dilution method; type: functional; conditions: N315, 48 h
Serratia marcescens [7] = assay: Antibacterial activity against Serratia marcescens ATCC 12795 cultured in MH medium assessed as reduction in bacterial growth incubated for 48 hrs by microbroth dilution method; type: functional; conditions: ATCC 12795, 48 h
Pseudomonas aeruginosa [8] = assay: Biofilm degradation activity against Pseudomonas aeruginosa ATCC 9027 assessed as biofilm formation at antibacterial MIC incubated for 24 hrs compound added post-biofilm formation by total biomass crystal violet staining-based method; type: functional
[9] = tested on: Staphylococcus epidermidis; assay: Bactericidal activity against methicillin resistant Staphylococcus epidermidis ATCC 13199 cultured in MH medium assessed as reduction in bacterial survival incubated for 48 hrs by microbroth dilution method; type: functional; conditions: ATCC 13199, 48 h
Pseudomonas aeruginosa [10] = assay: Antibacterial activity against Pseudomonas aeruginosa ATCC 9027 cultured in MH medium assessed as reduction in bacterial growth incubated for 48 hrs by microbroth dilution method; type: functional; conditions: ATCC 9027, 48 h
Proteus vulgaris = assay: Bactericidal activity against Proteus vulgaris NCTC 4635 cultured in MH medium assessed as reduction in bacterial survival incubated for 48 hrs by microbroth dilution method; type: functional; conditions: NCTC 4635, 48 h
Bacillus spizizenii [11] = assay: Antibacterial activity against Bacillus subtilis ATCC 6633 cultured in MH medium assessed as reduction in bacterial growth incubated for 48 hrs by microbroth dilution method; type: functional; conditions: ATCC 6633, 48 h
Pseudomonas aeruginosa [12] = assay: Antibiofilm activity against Pseudomonas aeruginosa ATCC 9027 assessed as biofilm formation at antibacterial MIC incubated for 24 hrs compound added prior to bacterial biofilm formation by total biomass crystal violet staining-based method relative to control; type: functional
Escherichia coli [13] = assay: Bactericidal activity against […] Escherichia coli ATCC 8739 assessed as reduction in bacterial survival incubated for 48 hrs in presence of 50 ug/ml […], PAbetaN by microbroth dilution method; type: functional; conditions: ATCC 8739, 48 h
[14] = target: T1, DNA gyrase (Escherichia coli) (UniProt P0AES6+P0AES4); assay: Inhibition of Escherichia coli DNA gyrase super-coiling activity using relaxed pNO1 DNA as substrate assessed as enzyme residual activity at 10 uM incubated for 30 mins by fluorescence assay relative to control; type: protein-complex assay
HEK293 = assay: Cytotoxicity against human HEK293 cells assessed as changes in cell morphology upto 20 uM incubated for 72 hrs by MTT assay; type: cell-based; conditions: hek293, 72 h
[15] = tested on: Staphylococcus epidermidis; assay: Antibacterial activity against Staphylococcus epidermidis ATCC 14990 cultured in MH medium assessed as reduction in bacterial growth incubated for 48 hrs by microbroth dilution method; type: functional; conditions: ATCC 14990, 48 h
Pseudomonas aeruginosa [16] = assay: Biofilm degradation activity against Pseudomonas aeruginosa ATCC 9027 assessed as biofilm formation at 4 times antibacterial MIC incubated for 24 hrs compound added post-biofilm formation by total biomass crystal violet staining-based method; type: functional
Streptococcus pneumoniae [17] = assay: Antibacterial activity against Streptococcus pneumoniae cultured in MH medium assessed as reduction in bacterial growth incubated for 48 hrs by microbroth dilution method; type: functional
Staphylococcus aureus [18] = assay: Antibiofilm activity against Staphylococcus aureus ATCC 6538 assessed as biofilm formation at antibacterial MIC incubated for 24 hrs compound added prior to bacterial biofilm formation by total biomass crystal violet staining-based method relative to control; type: functional
Staphylococcus aureus [19] = assay: Antibacterial activity against methicillin resistant Staphylococcus aureus 6347 cultured in MH medium assessed as reduction in bacterial growth incubated for 48 hrs by microbroth dilution method; type: functional; conditions: Staphylococcus aureus, 6347, 48 h
Staphylococcus aureus [20] = assay: Bactericidal activity against methicillin resistant Staphylococcus aureus 6347 cultured in MH medium assessed as reduction in bacterial survival incubated for 48 hrs by microbroth dilution method; type: functional; conditions: Staphylococcus aureus, 6347, 48 h
Staphylococcus aureus [21] = assay: Antibacterial activity against Staphylococcus aureus ATCC 6538 cultured in MH medium assessed as reduction in bacterial growth incubated for 48 hrs by microbroth dilution method; type: functional; conditions: ATCC 6538, 48 h
[22] = tested on: Staphylococcus epidermidis; assay: Bactericidal activity against Staphylococcus epidermidis ATCC 14990 cultured in MH medium assessed as reduction in bacterial survival incubated for 48 hrs by microbroth dilution method; type: functional; conditions: ATCC 14990, 48 h
Escherichia coli [23] = assay: Antibacterial activity against […] Escherichia coli ATCC 8739 assessed as reduction in bacterial growth incubated for 48 hrs in presence of 50 ug/ml […], PAbetaN by microbroth dilution method; type: functional; conditions: ATCC 8739, 48 h
[24] = Lipophilicity, log k of the compound at 100 ug/ml by micellar electrokinetic chromatography; type: physicochemical
Bacillus spizizenii [25] = assay: Bactericidal activity against Bacillus subtilis ATCC 6633 cultured in MH medium assessed as reduction in bacterial survival incubated for 48 hrs by microbroth dilution method; type: functional; conditions: ATCC 6633, 48 h
Staphylococcus aureus [26] = assay: Antibiofilm activity against Staphylococcus aureus ATCC 25923 assessed as reduction in biofilm biomass at >2.5 uM incubated for 24 hrs compound added prior to bacterial biofilm formation by crystal violet staining based assay; type: functional, organism-based
[27] = tested on: Staphylococcus epidermidis; assay: Antibacterial activity against methicillin resistant Staphylococcus epidermidis ATCC 13199 cultured in MH medium assessed as reduction in bacterial growth incubated for 48 hrs by microbroth dilution method; type: functional; conditions: ATCC 13199, 48 h
[28] = target: T1, DNA gyrase (Escherichia coli); assay: Inhibition of Escherichia coli DNA gyrase super-coiling activity using relaxed pNO1 DNA as substrate assessed as enzyme residual activity at 1 uM incubated for 30 mins by fluorescence assay relative to control; type: protein-complex assay
Escherichia coli [29] = assay: Bactericidal activity against Escherichia coli ATCC 8739 cultured in MH medium assessed as reduction in bacterial survival incubated for 48 hrs by microbroth dilution method; type: functional; conditions: ATCC 8739, 48 h
Streptococcus pneumoniae [30] = assay: Bactericidal activity against Streptococcus pneumoniae cultured in MH medium assessed as reduction in bacterial survival incubated for 48 hrs by microbroth dilution method; type: functional
Staphylococcus aureus [31] = assay: Biofilm degradation activity against Staphylococcus aureus ATCC 6538 assessed as biofilm formation at antibacterial MIC incubated for 24 hrs compound added post-biofilm formation by total biomass crystal violet staining-based method; type: functional
Staphylococcus aureus [32] = assay: Biofilm degradation activity against Staphylococcus aureus ATCC 6538 assessed as biofilm formation at 2 times antibacterial MIC incubated for 24 hrs compound added post-biofilm formation by total biomass crystal violet staining-based method; type: functional

Structure (SMILES) | MBC (Serratia marcescens [1]) | inhibition (INH) (Staphylococcus aureus [2]) | MIC (Escherichia coli [3]) | Activity (Pseudomonas aeruginosa [4]) | Activity (Staphylococcus aureus [5]) | MBC (Staphylococcus aureus [6]) | MIC (Serratia marcescens [7]) | Activity (Pseudomonas aeruginosa [8]) | MBC [9] | MIC (Pseudomonas aeruginosa [10]) | MBC (Proteus vulgaris) | MIC (Bacillus spizizenii [11]) | Activity (Pseudomonas aeruginosa [12]) | MBC (Escherichia coli [13]) | Activity [14] | Activity (HEK293) | MIC [15] | Activity (Pseudomonas aeruginosa [16]) | MIC (Streptococcus pneumoniae [17]) | Activity (Staphylococcus aureus [18]) | also measured
O=C(O)C1=Cc2ccccc2N2C[N+]3(CCN(c4cc5c(cc4F)c(=O)c(C(=O)O)cn5C4CC4)CC3)N=C12.[Cl-] | 2 mg/L | 100% | 2 mg/L | 26% | 6% | 4 mg/L | 1 mg/L | 49% | 1 mg/L | 2 mg/L | 0.063 mg/L | 1 mg/L | 13% | 0.5 mg/L | 34% | Non-Toxic | 2 mg/L | 30% | 256 mg/L | 6% | MIC (Staphylococcus aureus [19]): 2 mg/L; MBC (Staphylococcus aureus [20]): 2 mg/L; MIC (Staphylococcus aureus [21]): 4 mg/L; MBC [22]: 2 mg/L; MIC (Escherichia coli [23]): 0.25 mg/L; log K [24]: -0.1527; MBC (Bacillus spizizenii [25]): 2 mg/L; inhibition (Staphylococcus aureus [26]): Active; MIC [27]: 1 mg/L; Activity [28]: 97%; MBC (Escherichia coli [29]): 2 mg/L; MBC (Streptococcus pneumoniae [30]): 512 mg/L; Activity (Staphylococcus aureus [31]): 21%; Activity (Staphylococcus aureus [32]): 28%
CCn1cc(C(=O)O)c(=O)c2cc(F)c(N3CC[N+]4(CC3)CN3C(=N4)C(C(=O)O)=Cc4ccccc43)nc21.[Cl-] | 16 mg/L | 100% | 1 mg/L | 52% | 35% | 8 mg/L | 8 mg/L | 61% | 2 mg/L | 1 mg/L | 0.5 mg/L | 2 mg/L | 16% | 1 mg/L | 73% | Non-Toxic | 4 mg/L | 42% | 256 mg/L | 18% | MIC (Staphylococcus aureus [19]): 4 mg/L; MBC (Staphylococcus aureus [20]): 16 mg/L; MIC (Staphylococcus aureus [21]): 8 mg/L; MBC [22]: 4 mg/L; MIC (Escherichia coli [23]): 0.5 mg/L; log K [24]: -0.2387; MBC (Bacillus spizizenii [25]): 2 mg/L; inhibition (Staphylococcus aureus [26]): Active; MIC [27]: 2 mg/L; Activity [28]: 100%; MBC (Escherichia coli [29]): 2 mg/L; MBC (Streptococcus pneumoniae [30]): 512 mg/L; Activity (Staphylococcus aureus [31]): 45%; Activity (Staphylococcus aureus [32]): 21%
CCn1cc(C(=O)O)c(=O)c2cc(F)c(N3CC[N+]4(CN5C(=N4)C(C(=O)O)=Cc4ccccc45)C(C)C3)c(F)c21.[Cl-] (configuration not stated) | 2 mg/L | 100% | 0.25 mg/L | 73% | 47% | 2 mg/L | 2 mg/L | 65% | 2 mg/L | 1 mg/L | 0.125 mg/L | 0.5 mg/L | 53% | 0.25 mg/L | 11% | Non-Toxic | 4 mg/L | 47% | 512 mg/L | 69% | MIC (Staphylococcus aureus [19]): 4 mg/L; MBC (Staphylococcus aureus [20]): 16 mg/L; MIC (Staphylococcus aureus [21]): 2 mg/L; MBC [22]: 4 mg/L; MIC (Escherichia coli [23]): 0.125 mg/L; log K [24]: -0.265; MBC (Bacillus spizizenii [25]): 0.5 mg/L; inhibition (Staphylococcus aureus [26]): Active; MIC [27]: 1 mg/L; Activity [28]: 97%; MBC (Escherichia coli [29]): 0.5 mg/L; MBC (Streptococcus pneumoniae [30]): 512 mg/L; Activity (Staphylococcus aureus [31]): 60%; Activity (Staphylococcus aureus [32]): 44%
